System: E. coli
Experiment: Test Example 1: inducing E. coli CGC with N-acetyl-D-glucosamine and antibiotics in different ratios (K-B method, microscopy)
Format: cell-based

For `CC(=O)N[C@@H]1[C@@H](O)[C@H](O)[C@@H](CO)O[C@H]1O` [Compound (I), N-acetyl-D-glucosamine], the CGC formation (Compound (I) 10 mg, aminoglycoside (kanamycin, gentamycin) 50 mg) was “− (if cell length was not greater than 50 μm and cell number was within the range from 0 to 4 in each visual field, it was deemed as CGC negative and was marked with “−”)”, the CGC formation (Compound (I) 10 mg, aminoglycoside (kanamycin, gentamycin) 100 mg) was “+ (If cell length was more than 50 μm and cell number was more than 5 in each visual field, it was deemed as CGC positive and was marked with “+”)” and the CGC formation (Compound (I) 10 mg, aminoglycoside (kanamycin, gentamycin) 150 mg) was “+ (If cell length was more than 50 μm and cell number was more than 5 in each visual field, it was deemed as CGC positive and was marked with “+”)”. For the same compound, the CGC formation (Compound (I) 10 mg, aminoglycoside (kanamycin, gentamycin) 200 mg) was “+ (If cell length was more than 50 μm and cell number was more than 5 in each visual field, it was deemed as CGC positive and was marked with “+”)”, the CGC formation (Compound (I) 10 mg, aminoglycoside (kanamycin, gentamycin) 300 mg) was “+ (If cell length was more than 50 μm and cell number was more than 5 in each visual field, it was deemed as CGC positive and was marked with “+”)” and the CGC formation (Compound (I) 10 mg, aminoglycoside (kanamycin, gentamycin) 400 mg) was “+ (If cell length was more than 50 μm and cell number was more than 5 in each visual field, it was deemed as CGC positive and was marked with “+”)”. The CGC formation (Compound (I) 10 mg, aminoglycoside (kanamycin, gentamycin) 500 mg) was “+ (If cell length was more than 50 μm and cell number was more than 5 in each visual field, it was deemed as CGC positive and was marked with “+”)”, the CGC formation (Compound (I) 10 mg, macrolide (spiramycin) 300 mg) was “− (if cell length was not greater than 50 μm and cell number was within the range from 0 to 4 in each visual field, it was deemed as CGC negative and was marked with “−”)” and the CGC formation (Compound (I) 10 mg, macrolide (spiramycin) 500 mg) was “+ (If cell length was more than 50 μm and cell number was more than 5 in each visual field, it was deemed as CGC positive and was marked with “+”)”. For the same compound, the CGC formation (Compound (I) 10 mg, macrolide (spiramycin) 700 mg) was “+ (If cell length was more than 50 μm and cell number was more than 5 in each visual field, it was deemed as CGC positive and was marked with “+”)”, the CGC formation (Compound (I) 10 mg, macrolide (spiramycin) 900 mg) was “+ (If cell length was more than 50 μm and cell number was more than 5 in each visual field, it was deemed as CGC positive and was marked with “+”)” and the CGC formation (Compound (I) 10 mg, macrolide (spiramycin) 1100 mg) was “+ (If cell length was more than 50 μm and cell number was more than 5 in each visual field, it was deemed as CGC positive and was marked with “+”)”. The CGC formation (Compound (I) 10 mg, macrolide (spiramycin) 1300 mg) was “+ (If cell length was more than 50 μm and cell number was more than 5 in each visual field, it was deemed as CGC positive and was marked with “+”)”, the CGC formation (Compound (I) 10 mg, macrolide (spiramycin) 1500 mg) was “+ (If cell length was more than 50 μm and cell number was more than 5 in each visual field, it was deemed as CGC positive and was marked with “+”)” and the CGC formation (Compound (I) 50 mg, aminoglycoside (kanamycin, gentamycin) 50 mg) was “− (if cell length was not greater than 50 μm and cell number was within the range from 0 to 4 in each visual field, it was deemed as CGC negative and was marked with “−”)”. The CGC formation (Compound (I) 50 mg, aminoglycoside (kanamycin, gentamycin) 100 mg) was “− (if cell length was not greater than 50 μm and cell number was within the range from 0 to 4 in each visual field, it was deemed as CGC negative and was marked with “−”)”, the CGC formation (Compound (I) 50 mg, aminoglycoside (kanamycin, gentamycin) 150 mg) was “+ (If cell length was more than 50 μm and cell number was more than 5 in each visual field, it was deemed as CGC positive and was marked with “+”)” and the CGC formation (Compound (I) 50 mg, aminoglycoside (kanamycin, gentamycin) 200 mg) was “+ (If cell length was more than 50 μm and cell number was more than 5 in each visual field, it was deemed as CGC positive and was marked with “+”)”. For the same compound, the CGC formation (Compound (I) 50 mg, aminoglycoside (kanamycin, gentamycin) 300 mg) was “+ (If cell length was more than 50 μm and cell number was more than 5 in each visual field, it was deemed as CGC positive and was marked with “+”)”, the CGC formation (Compound (I) 50 mg, aminoglycoside (kanamycin, gentamycin) 400 mg) was “+ (If cell length was more than 50 μm and cell number was more than 5 in each visual field, it was deemed as CGC positive and was marked with “+”)” and the CGC formation (Compound (I) 50 mg, aminoglycoside (kanamycin, gentamycin) 500 mg) was “+ (If cell length was more than 50 μm and cell number was more than 5 in each visual field, it was deemed as CGC positive and was marked with “+”)”. The CGC formation (Compound (I) 50 mg, macrolide (spiramycin) 300 mg) was “− (if cell length was not greater than 50 μm and cell number was within the range from 0 to 4 in each visual field, it was deemed as CGC negative and was marked with “−”)”, the CGC formation (Compound (I) 50 mg, macrolide (spiramycin) 500 mg) was “− (if cell length was not greater than 50 μm and cell number was within the range from 0 to 4 in each visual field, it was deemed as CGC negative and was marked with “−”)” and the CGC formation (Compound (I) 50 mg, macrolide (spiramycin) 700 mg) was “+ (If cell length was more than 50 μm and cell number was more than 5 in each visual field, it was deemed as CGC positive and was marked with “+”)”. The CGC formation (Compound (I) 50 mg, macrolide (spiramycin) 900 mg) was “+ (If cell length was more than 50 μm and cell number was more than 5 in each visual field, it was deemed as CGC positive and was marked with “+”)”, the CGC formation (Compound (I) 50 mg, macrolide (spiramycin) 1100 mg) was “+ (If cell length was more than 50 μm and cell number was more than 5 in each visual field, it was deemed as CGC positive and was marked with “+”)” and the CGC formation (Compound (I) 50 mg, macrolide (spiramycin) 1300 mg) was “+ (If cell length was more than 50 μm and cell number was more than 5 in each visual field, it was deemed as CGC positive and was marked with “+”)”. For the same compound, the CGC formation (Compound (I) 50 mg, macrolide (spiramycin) 1500 mg) was “+ (If cell length was more than 50 μm and cell number was more than 5 in each visual field, it was deemed as CGC positive and was marked with “+”)”, the CGC formation (Compound (I) 100 mg, aminoglycoside (kanamycin, gentamycin) 50 mg) was “− (if cell length was not greater than 50 μm and cell number was within the range from 0 to 4 in each visual field, it was deemed as CGC negative and was marked with “−”)” and the CGC formation (Compound (I) 100 mg, aminoglycoside (kanamycin, gentamycin) 100 mg) was “− (if cell length was not greater than 50 μm and cell number was within the range from 0 to 4 in each visual field, it was deemed as CGC negative and was marked with “−”)”. The CGC formation (Compound (I) 100 mg, aminoglycoside (kanamycin, gentamycin) 150 mg) was “− (if cell length was not greater than 50 μm and cell number was within the range from 0 to 4 in each visual field, it was deemed as CGC negative and was marked with “−”)”, the CGC formation (Compound (I) 100 mg, aminoglycoside (kanamycin, gentamycin) 200 mg) was “+ (If cell length was more than 50 μm and cell number was more than 5 in each visual field, it was deemed as CGC positive and was marked with “+”)” and the CGC formation (Compound (I) 100 mg, aminoglycoside (kanamycin, gentamycin) 300 mg) was “+ (If cell length was more than 50 μm and cell number was more than 5 in each visual field, it was deemed as CGC positive and was marked with “+”)”. For the same compound, the CGC formation (Compound (I) 100 mg, aminoglycoside (kanamycin, gentamycin) 400 mg) was “+ (If cell length was more than 50 μm and cell number was more than 5 in each visual field, it was deemed as CGC positive and was marked with “+”)”, the CGC formation (Compound (I) 100 mg, aminoglycoside (kanamycin, gentamycin) 500 mg) was “+ (If cell length was more than 50 μm and cell number was more than 5 in each visual field, it was deemed as CGC positive and was marked with “+”)” and the CGC formation (Compound (I) 100 mg, macrolide (spiramycin) 300 mg) was “− (if cell length was not greater than 50 μm and cell number was within the range from 0 to 4 in each visual field, it was deemed as CGC negative and was marked with “−”)”. The CGC formation (Compound (I) 100 mg, macrolide (spiramycin) 500 mg) was “− (if cell length was not greater than 50 μm and cell number was within the range from 0 to 4 in each visual field, it was deemed as CGC negative and was marked with “−”)”, the CGC formation (Compound (I) 100 mg, macrolide (spiramycin) 700 mg) was “− (if cell length was not greater than 50 μm and cell number was within the range from 0 to 4 in each visual field, it was deemed as CGC negative and was marked with “−”)” and the CGC formation (Compound (I) 100 mg, macrolide (spiramycin) 900 mg) was “+ (If cell length was more than 50 μm and cell number was more than 5 in each visual field, it was deemed as CGC positive and was marked with “+”)”. The CGC formation (Compound (I) 100 mg, macrolide (spiramycin) 1100 mg) was “+ (If cell length was more than 50 μm and cell number was more than 5 in each visual field, it was deemed as CGC positive and was marked with “+”)”, the CGC formation (Compound (I) 100 mg, macrolide (spiramycin) 1300 mg) was “+ (If cell length was more than 50 μm and cell number was more than 5 in each visual field, it was deemed as CGC positive and was marked with “+”)” and the CGC formation (Compound (I) 100 mg, macrolide (spiramycin) 1500 mg) was “+ (If cell length was more than 50 μm and cell number was more than 5 in each visual field, it was deemed as CGC positive and was marked with “+”)”. The CGC formation (Compound (I) 150 mg, aminoglycoside (kanamycin, gentamycin) 50 mg) was “− (if cell length was not greater than 50 μm and cell number was within the range from 0 to 4 in each visual field, it was deemed as CGC negative and was marked with “−”)”, the CGC formation (Compound (I) 150 mg, aminoglycoside (kanamycin, gentamycin) 100 mg) was “− (if cell length was not greater than 50 μm and cell number was within the range from 0 to 4 in each visual field, it was deemed as CGC negative and was marked with “−”)” and the CGC formation (Compound (I) 150 mg, aminoglycoside (kanamycin, gentamycin) 150 mg) was “− (if cell length was not greater than 50 μm and cell number was within the range from 0 to 4 in each visual field, it was deemed as CGC negative and was marked with “−”)”. The CGC formation (Compound (I) 150 mg, aminoglycoside (kanamycin, gentamycin) 200 mg) was “− (if cell length was not greater than 50 μm and cell number was within the range from 0 to 4 in each visual field, it was deemed as CGC negative and was marked with “−”)”, the CGC formation (Compound (I) 150 mg, aminoglycoside (kanamycin, gentamycin) 300 mg) was “+ (If cell length was more than 50 μm and cell number was more than 5 in each visual field, it was deemed as CGC positive and was marked with “+”)” and the CGC formation (Compound (I) 150 mg, aminoglycoside (kanamycin, gentamycin) 400 mg) was “+ (If cell length was more than 50 μm and cell number was more than 5 in each visual field, it was deemed as CGC positive and was marked with “+”)”. For the same compound, the CGC formation (Compound (I) 150 mg, aminoglycoside (kanamycin, gentamycin) 500 mg) was “+ (If cell length was more than 50 μm and cell number was more than 5 in each visual field, it was deemed as CGC positive and was marked with “+”)” and the CGC formation (Compound (I) 150 mg, macrolide (spiramycin) 300 mg) was “− (if cell length was not greater than 50 μm and cell number was within the range from 0 to 4 in each visual field, it was deemed as CGC negative and was marked with “−”)”.

From patent US20070191291A1, “Compound antibacterial drugs comprising n-acetyl-d-glucosamine” (priority 2003, published 2007)
